Results taken from ChEMBL document CHEMBL4828719, “H2dpa derivatives containing pentadentate ligands: An acyclic adjuvant potentiates meropenem activity in vitro and in vivo against metallo-β-lactamase-producing Enterobacterales” (Eur J Med Chem, 2021).
Converted amounts (≈) assume the structure as drawn. The source made the active and inactive calls. No cut-off for these calls is given here.

What was measured:
[1] = test system: Escherichia coli; assay: Antibiotic adjuvant activity against meropenem-treated NDM-1 producing Escherichia coli DH5 alpha assessed as inhibition of bacterial growth at 8 ug/ml incubated for 16 to 20 hrs in the presence of meropenem and 100 uM zinc sulfate by CLSI based microdilution method; format: functional, organism-based; conditions: dose 8.0 µg/ml, time 16-20 hrs
[2] = Acute toxicity in BALB/c mouse assessed as change in mean corpuscular volume at 50 mg/kg, ip administered as single dose measured after 24 hrs; format: organism-based; conditions: in vivo
[3] = test system: Klebsiella pneumoniae; assay: Antibacterial activity against NDM-producing carbapenem resistant Klebsiella pneumoniae infected in BALB/c mouse sepsis model assessed as animal survival at 10 mg/kg, ip measured after 48 hrs; format: functional, organism-based
[4] = test system: Escherichia coli; assay: Antibacterial activity against MBL producing Escherichia coli isolates assessed as inhibition of bacterial growth at 64 ug/ml incubated for 16 to 20 hrs by CLSI based microdilution method; format: functional, organism-based; conditions: dose 64.0 µg/ml, time 16-20 hrs
[5] = Zinc chelation-dependent inhibition of NDM-1 (unknown origin) expressed in Escherichia coli BL21 (DE3) using meropenem as substrate preincubated with enzyme for 5 to 10 mins followed by substrate addition
[6] = test system: Escherichia coli; assay: Antibacterial activity against VIM-1 producing Escherichia coli DH5 alpha assessed as bacterial growth at 8 ug/ml incubated for 16 to 20 hrs by CLSI based microdilution method; format: functional; conditions: dose 8 µg/ml; time 16-20 hrs
[7] = Toxicity in sheep RBC assessed as induction of hemolysis measured after 1 hr; format: tissue-based, Ovis aries, Erythrocyte; conditions: sheep red blood cells
[8] = Acute toxicity in BALB/c mouse assessed as pathological changes in liver at 50 mg/kg, ip administered as single dose measured after 24 hrs by hematoxylin and eosin staining based assay; format: organism-based; conditions: in vivo
[9] = Zinc chelation-dependent inhibition of VIM-2 (unknown origin) expressed in Escherichia coli BL21 (DE3) using nitrocefin as substrate preincubated with enzyme for 5 to 10 mins followed by substrate addition
[10] = test system: Pseudomonas aeruginosa; assay: Antibacterial activity against MBL producing Pseudomonas aeruginosa isolates assessed as inhibition of bacterial growth at 64 ug/ml incubated for 16 to 20 hrs by CLSI based microdilution method; format: functional, organism-based; conditions: dose 64.0 µg/ml, time 16-20 hrs
[11] = test system: Escherichia coli; assay: Antibiotic adjuvant activity against meropenem-treated IMP-4 producing Escherichia coli DH5 alpha assessed as bacterial growth at 8 ug/ml incubated for 16 to 20 hrs in the presence of meropenem by CLSI based microdilution method; format: functional; conditions: dose 8 µg/ml; time 16-20 hrs
[12] = test system: Escherichia coli; assay: Antibiotic adjuvant activity against NDM-1 producing Escherichia coli DH5alpha assessed as potentiation of meropenem-induced antibacterial activity by measuring meropenem MIC at 16 ug/ml incubated for 16 to 20 hrs by checkerboard assay (reference value: 32 ug/ml); format: functional; conditions: DH5[alpha], dose 16 µg/ml, time 16-20 hrs
[13] = test system: Klebsiella pneumoniae; assay: Antibacterial activity against MBL producing Klebsiella pneumoniae isolates assessed as inhibition of bacterial growth at 64 ug/ml incubated for 16 to 20 hrs by CLSI based microdilution method; format: functional, organism-based; conditions: dose 64.0 µg/ml, time 16-20 hrs
[14] = Zinc chelation-dependent inhibition of VIM-2 (unknown origin) expressed in Escherichia coli DH5 alpha using nitrocefin as substrate preincubated with enzyme for 5 mins followed by substrate addition in presence of zinc sulfate
[15] = test system: Klebsiella pneumoniae; assay: Antibiotic adjuvant activity against meropenem-treated NDM-producing carbapenem resistant Klebsiella pneumoniae infected in BALB/c mouse sepsis model assessed as reduction of bacterial load in kidney at 10 mg/kg, ip in the presence of meropenem observed for 2 days; format: functional, organism-based; conditions: time 2.0 day
[16] = test system: Enterobacter hormaechei; assay: Antibacterial activity against MBL producing Enterobacter hormaechei isolates assessed as inhibition of bacterial growth at 64 ug/ml incubated for 16 to 20 hrs by CLSI based microdilution method; format: functional, organism-based; conditions: dose 64.0 µg/ml, time 16-20 hrs
[17] = Zinc chelation-dependent inhibition of IMP-4 (unknown origin) expressed in Escherichia coli BL21 (DE3) using imipenem as substrate preincubated with enzyme for 5 to 10 mins followed by substrate addition
[18] = test system: Escherichia coli; assay: Antibiotic adjuvant activity against meropenem-treated VIM-1 producing Escherichia coli DH5 alpha assessed as inhibition of bacterial growth at 8 ug/ml incubated for 16 to 20 hrs in the presence of meropenem and 1 to 10 uM zinc sulfate by CLSI based microdilution method; format: functional, organism-based; conditions: dose 8.0 µg/ml, time 16-20 hrs
[19] = Acute toxicity in BALB/c mouse assessed as change in WBC count at 50 mg/kg, ip administered as single dose measured after 24 hrs; format: organism-based; conditions: in vivo
[20] = Acute toxicity in BALB/c mouse assessed as change in creatinine level in serum at 50 mg/kg, ip administered as single dose measured after 24 hrs; format: organism-based; conditions: in vivo
[21] = Acute toxicity in BALB/c mouse assessed as survival rate at 10 to 50 mg/kg, ip administered as single dose measured for 72 hrs; format: organism-based; conditions: in vivo, dose 10-50 mg/kg
[22] = Non competitive inhibition of NDM-1 (unknown origin) assessed as inhibition of substrate hydrolysis by measuring decrease in Vmax using meropenem as substrate preincubated with enzyme for 5 mins followed by substrate addition by Lineweaver-Burk plot analysis
[23] = test system: Enterobacter cloacae; assay: Antibacterial activity against MBL producing Enterobacter cloacae isolates assessed as inhibition of bacterial growth at 64 ug/ml incubated for 16 to 20 hrs by CLSI based microdilution method; format: functional, organism-based; conditions: dose 64.0 µg/ml, time 16-20 hrs
[24] = test system: Klebsiella pneumoniae; assay: Antibiotic adjuvant activity against meropenem-treated NDM-producing carbapenem resistant Klebsiella pneumoniae infected in BALB/c mouse sepsis model assessed as reduction of bacterial load in spleen at 10 mg/kg, ip in the presence of meropenem observed for 2 days; format: functional, organism-based; conditions: time 2.0 day
[25] = Acute toxicity in BALB/c mouse assessed as change in urea level in serum at 50 mg/kg, ip administered as single dose measured after 24 hrs; format: organism-based; conditions: in vivo
[26] = test system: Escherichia coli; assay: Antibiotic adjuvant activity against meropenem-treated VIM-1 producing Escherichia coli DH5 alpha assessed as bacterial growth at 8 ug/ml incubated for 16 to 20 hrs in the presence of meropenem and 100 uM zinc sulfate by CLSI based microdilution method; format: functional; conditions: dose 8 µg/ml; time 16-20 hrs
[27] = test system: Escherichia coli; assay: Synergistic antibacterial activity against IMP-4 producing Escherichia coli DH5alpha assessed as fractional inhibitory concentration index incubated for 16 to 20 hrs in presence of meropenem by checkerboard assay; format: functional, DH5[alpha]; conditions: time 16-20 hrs
[28] = Acute toxicity in BALB/cmouse assessed as change in hematocrit level at 50 mg/kg, ip administered as single dose measured after 24 hrs; format: organism-based, BALB/c; conditions: mouse, in vivo
[29] = Acute toxicity in BALB/c mouse assessed as pathological changes in kidney at 50 mg/kg, ip administered as single dose measured after 24 hrs by hematoxylin and eosin staining based assay; format: organism-based; conditions: in vivo
[30] = test system: Escherichia coli; assay: Antibacterial activity against IMP-4 producing Escherichia coli DH5alpha assessed as decrease in bacterial growth incubated for 16 to 20 hrs by CLSI based microdilution method; format: functional; conditions: DH5[alpha], time 16-20 hrs
[31] = test system: Escherichia coli; assay: Antibiotic adjuvant activity against NDM-1 producing Escherichia coli DH5alpha assessed as potentiation of meropenem-induced antibacterial activity by measuring fold reduction in meropenem MIC at 16 ug/ml incubated for 16 to 20 hrs by checkerboard assay; format: functional, DH5[alpha]; conditions: dose 16 µg/ml; time 16-20 hrs
[32] = test system: Escherichia coli; assay: Antibiotic adjuvant activity against IMP-4 producing Escherichia coli DH5alpha assessed as potentiation of meropenem-induced antibacterial activity incubated for 16 to 20 hrs by agar disc diffusion assay; format: functional, organism-based; conditions: DH5[alpha], time 16-20 hrs

Row | SMILES | Activity [1] | Activity [2] | Activity [3] | Activity [4] | IC50 [5] | Activity [6] | HC50 at 1 h [7] | Activity [8] | IC50 [9] | Activity [10] | Activity [11] | MIC [12] | Activity [13] | Activity [14] | Activity [15] | Activity [16] | IC50 [17] | Activity [18] | Activity [19] | Activity [20] | other results
1 | C[C@H](C(=O)O)N(Cc1cccc(C(=O)O)n1)Cc1cccc(C(=O)O)n1 | inactive | Non-Toxic | inactive | inactive | 1600 nM | 95% | > 1020 µg/mL | Non-Toxic | 1560 nM | inactive | <10% | < 0.0312 µg/mL | inactive | inactive | Active | inactive | 4400 nM | Active | Non-Toxic | Non-Toxic | survival at 72 h [21]: 100%; Ki [22]: 1590 nM; Activity [23]: inactive; Activity [24]: Active; Activity [25]: Non-Toxic; Activity [26]: 100%; fractional inhibitory concentration index (FICI) [27]: 0.14; Activity [28]: Non-Toxic; Activity [29]: Non-Toxic; MIC [30]: 128 µg/mL (≈ 356 µM); fold change (FC) [31]: >1000; Activity [32]: Active
2 | C[C@@H](C(=O)O)N(Cc1cccc(C(=O)O)n1)Cc1cccc(C(=O)O)n1 | inactive | Non-Toxic | inactive | inactive | 1690 nM | 95% | > 1020 µg/mL | Non-Toxic | 1540 nM | inactive | <10% | < 0.0312 µg/mL | inactive | inactive | Active | inactive | 4170 nM | Active | Non-Toxic | Non-Toxic | survival at 72 h [21]: 100%; Ki [22]: 1700 nM; Activity [23]: inactive; Activity [24]: Active; Activity [25]: Non-Toxic; Activity [26]: 100%; fractional inhibitory concentration index (FICI) [27]: 0.14; Activity [28]: Non-Toxic; Activity [29]: Non-Toxic; MIC [30]: 128 µg/mL (≈ 356 µM); fold change (FC) [31]: >1000; Activity [32]: Active
